Data as given in patent US20180194762A1 (Pharmacyclics LLC, priority 2017, published 2018).
Read-outs that look alike come from different tables or passages of the source.

Key:
Type in all cases: biochemical
Btk = molecular target: T1, Btk (Homo sapiens, UniProt Q06187); test: Btk in vitro inhibitory activity (one of Method A TR-FRET, Method B electrophoretic mobility shift, Method C radiometric filter binding)
T1 construct: purified from insect cells as a full-length construct containing a N-terminal 6X-His tag; His6 (N); made in house; host or cells: insect cells (Method C)
T1 sequence (Q06187 whole entry): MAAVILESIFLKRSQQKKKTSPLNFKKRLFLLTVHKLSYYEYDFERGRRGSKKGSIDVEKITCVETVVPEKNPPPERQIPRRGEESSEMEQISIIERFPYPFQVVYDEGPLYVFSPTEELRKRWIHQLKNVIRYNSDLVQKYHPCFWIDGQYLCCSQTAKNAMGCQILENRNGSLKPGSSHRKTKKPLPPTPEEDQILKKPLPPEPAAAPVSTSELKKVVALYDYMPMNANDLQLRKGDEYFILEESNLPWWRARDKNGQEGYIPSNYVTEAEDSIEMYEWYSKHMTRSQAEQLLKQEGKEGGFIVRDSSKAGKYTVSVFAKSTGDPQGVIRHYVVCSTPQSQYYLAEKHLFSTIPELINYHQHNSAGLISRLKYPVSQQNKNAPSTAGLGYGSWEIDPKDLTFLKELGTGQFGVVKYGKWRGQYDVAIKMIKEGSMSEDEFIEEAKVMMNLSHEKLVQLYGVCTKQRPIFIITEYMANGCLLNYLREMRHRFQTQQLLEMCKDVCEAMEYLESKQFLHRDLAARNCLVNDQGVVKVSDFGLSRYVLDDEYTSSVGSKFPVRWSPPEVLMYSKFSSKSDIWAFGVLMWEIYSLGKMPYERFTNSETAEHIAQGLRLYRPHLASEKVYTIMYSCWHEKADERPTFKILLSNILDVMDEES
Summary of the method: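 Method A: TR-FRET with 0.5 nM Btk at [ATP]=Km, EDTA-quenched, 665/615 nm ratio; Ki(app) converted to IC50. Method B: 1 nM full-length His6 human BTK, 1 μM FAM peptide, pH 7.5, mobility-shift product/sum ratio, 12-point 4-parameter fit. Method C: radiometric filter binding, 8 nM His-tagged BTK, 0.2 mg/mL poly-Glu-Tyr.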

TEC = molecular target: T2, TEC (Homo sapiens, UniProt P42680); test: Inhibition of a panel of kinases (in vitro HotSpot kinase assay, 33P-ATP, 1 μM ATP); details: for IC50: HotSpot kinase assay, 1 μM ATP; for TEC/Btk: ratio of TEC IC50 to Btk IC50 (selectivity)
T2 sequence (P42680 1-631): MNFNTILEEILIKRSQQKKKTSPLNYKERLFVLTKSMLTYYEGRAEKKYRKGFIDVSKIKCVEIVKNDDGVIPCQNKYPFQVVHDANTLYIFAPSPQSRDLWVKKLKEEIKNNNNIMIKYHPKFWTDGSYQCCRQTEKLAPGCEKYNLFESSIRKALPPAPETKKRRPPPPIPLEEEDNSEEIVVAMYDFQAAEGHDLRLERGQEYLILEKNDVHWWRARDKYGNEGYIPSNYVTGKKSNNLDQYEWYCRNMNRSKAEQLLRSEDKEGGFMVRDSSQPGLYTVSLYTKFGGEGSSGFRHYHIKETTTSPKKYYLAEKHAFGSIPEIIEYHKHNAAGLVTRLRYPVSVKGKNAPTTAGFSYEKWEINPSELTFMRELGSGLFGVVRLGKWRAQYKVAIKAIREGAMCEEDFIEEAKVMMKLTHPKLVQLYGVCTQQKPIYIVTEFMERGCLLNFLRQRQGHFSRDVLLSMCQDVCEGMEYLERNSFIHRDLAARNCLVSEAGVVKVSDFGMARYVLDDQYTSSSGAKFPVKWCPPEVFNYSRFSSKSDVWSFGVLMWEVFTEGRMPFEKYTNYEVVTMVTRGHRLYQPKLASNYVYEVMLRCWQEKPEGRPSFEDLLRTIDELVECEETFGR
Summary of the method: (§1)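 Purified kinase enzymes were incubated with an appropriate substrate and 33P-labelled ATP at 1 μM ATP. Inhibition was measured radiometrically from incorporation of the 33P label.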

panel of kinases = molecular target: T3, panel of kinases (Homo sapiens, UniProt P51813); test: Inhibition of a panel of kinases (in vitro HotSpot kinase assay, 33P-ATP, 1 μM ATP), other kinases; details: BMX wild-type, read-out: BMX-WT IC50
T3 sequence (P51813 1-675): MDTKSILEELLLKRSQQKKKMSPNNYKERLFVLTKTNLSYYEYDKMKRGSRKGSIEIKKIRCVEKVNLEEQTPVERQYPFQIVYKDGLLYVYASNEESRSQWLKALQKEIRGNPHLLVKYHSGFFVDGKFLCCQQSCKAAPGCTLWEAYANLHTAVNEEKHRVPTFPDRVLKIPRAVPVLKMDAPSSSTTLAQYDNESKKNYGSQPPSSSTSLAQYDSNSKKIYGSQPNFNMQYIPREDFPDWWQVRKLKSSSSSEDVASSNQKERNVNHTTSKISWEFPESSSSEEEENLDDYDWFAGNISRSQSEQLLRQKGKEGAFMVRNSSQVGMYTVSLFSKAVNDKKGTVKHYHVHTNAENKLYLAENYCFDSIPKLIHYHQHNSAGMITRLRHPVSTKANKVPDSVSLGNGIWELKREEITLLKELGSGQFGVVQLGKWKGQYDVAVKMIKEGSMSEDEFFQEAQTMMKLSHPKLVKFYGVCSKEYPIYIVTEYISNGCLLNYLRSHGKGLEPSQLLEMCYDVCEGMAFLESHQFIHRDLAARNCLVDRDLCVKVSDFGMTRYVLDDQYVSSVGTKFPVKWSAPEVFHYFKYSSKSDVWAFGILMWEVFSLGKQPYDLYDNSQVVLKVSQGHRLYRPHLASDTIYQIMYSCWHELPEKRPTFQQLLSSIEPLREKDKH
Summary of the method: as §1

[1] = wild-type Btk, read-out: Btk-WT IC50
[2] = method is one of A, B or C, not stated which, read-out: IC50 values against Btk

Row | SMILES | IC50 (Btk; [1]) [nM] | IC50 (TEC) [nM] | TEC/Btk (TEC) | IC50 (panel of kinases) [nM] | IC50 (Btk; [2]) [nM]
1 | C=CC(=O)N1CCC(c2n[nH]c3nccc(-c4ccc(CNC(=O)c5noc(C(C)(C)C)n5)c(F)c4)c23)C1 (stereo not shown) [Example 279, 5-tert-butyl-N-[(2-fluoro-4-{3-[1-(prop-2-enoyl)pyrrolidin-3-yl]-1H-pyrazolo[3,4-b]pyridin-4-yl}phenyl)methyl]-1,2,4-oxadiazole-3-carboxamide] | 0.0922 | 14.9 | 162 | 8.95 | 
2 | CC(=O)N1C[C@H](Nc2n[nH]c3nccc(-c4ccc(CNC(=O)c5nc(C(C)(C)C)no5)c(F)c4)c23)CC[C@@H]1C [Example 408, N-{[4-(3-{[(3R,6S)-1-acetyl-6-methylpiperidin-3-yl]amino}-1H-pyrazolo[3,4-b]pyridin-4-yl)-2-fluorophenyl]methyl}-3-tert-butyl-1,2,4-oxadiazole-5-carboxamide] | 0.413 | 110 |  | 874 | 
3 | CNC1CCN(c2n[nH]c3nccc(-c4ccc(CNC(=O)c5nc(C(C)(C)C)no5)c(F)c4)c23)C1 (stereo not shown) [Example 333, 3-tert-butyl-N-[(2-fluoro-4-{3-[3-(methylamino)pyrrolidin-1-yl]-1H-pyrazolo[3,4-b]pyridin-4-yl}phenyl)methyl]-1,2,4-oxadiazole-5-carboxamide] | 1.26 | 4360 |  | 4470 | 
4 | C=CC(=O)N[C@@H]1CCN(c2n[nH]c3nccc(-c4ccc(CNC(=O)c5cc(C(C)(C)C#N)on5)c(F)c4)c23)C1 [Example 402, 5-(2-cyanopropan-2-yl)-N-{[2-fluoro-4-(3-{(3R)-3-[(prop-2-noyl)amino]pyrrolidin-1-yl}-1H-pyrazolo[3,4-b]pyridin-4-yl)phenyl]methyl}-1,2-oxazole-3-carboxamide] | 0.222 | 6.48 |  | 16.9 | 
5 | CC(=O)NC1CCN(c2n[nH]c3nccc(-c4ccc([C@@H](C)NC(=O)c5cc(C(C)(C)O)on5)cc4)c23)CC1 [Example 365, N-[(1R)-1-{4-[3-(4-acetamidopiperidin-1-yl)-1H-pyrazolo[3,4-b]pyridin-4-yl]phenyl}ethyl]-5-(2-hydroxypropan-2-yl)-1,2-oxazole-3-carboxamide] | 46.2 | 6160 |  | 3040 | 
6 | C[C@H]1NCCC[C@H]1Nc1n[nH]c2nccc(-c3ccc(CNC(=O)c4noc(C(C)(C)C)n4)c(F)c3)c12 [Example 55] | 29.2 | > 10000 | >100 | > 10000 | 
7 | CCC(=O)N1CC(Nc2n[nH]c3nccc(-c4ccc(CNC(=O)c5noc(C(C)(C)C)n5)c(F)c4)c23)C1 [Example 130, 5-tert-butyl-N-[(2-fluoro-4-{3-[(1-propanoylazetidin-3-yl)amino]-1H-pyrazolo[3,4-b]pyridin-4-yl}phenyl)methyl]-1,2,4-oxadiazole-3-carboxamide] | 1.28 | 1330 | 1039 | 3580 | < 10
8 | CN(C)C(=O)N1CC[C@H](Nc2n[nH]c3nccc(-c4ccc(CNC(=O)c5ccc(C(C)(C)C)cc5)c(F)c4)c23)C1 [Example 114, (3S)-3-{[4-(4-{[(4-tert-butylphenyl)formamido]methyl}-3-fluorophenyl)-1H-pyrazolo[3,4-b]pyridin-3-yl]amino}-N,N-dimethylpyrrolidine-1-carboxamide] | 93.3 | 4100 | 44 | 2110 | 

Continued by falling IC50 (Btk; [1]), values first:

Row | IC50 (Btk; [1]) [nM] | IC50 (TEC) [nM] | TEC/Btk (TEC) | IC50 (panel of kinases) [nM] | IC50 (Btk; [2]) [nM] | SMILES
9 | 67.9 | 924 | 14 | 774 |  | C=CC(=O)N1CC[C@@H](Nc2n[nH]c3nccc(-c4ccc([C@H](C)NC(=O)c5noc(C(C)(C)C)n5)cc4)c23)C1 [Example 95, 5-tert-butyl-N-[(1S)-1-[4-(3-{[(3R)-1-(prop-2-enoyl)pyrrolidin-3-yl]amino}-1H-pyrazolo[3,4-b]pyridin-4-yl)phenyl]ethyl]-1,2,4-oxadiazole-3-carboxamide]
10 | 49 | 8590 | 175 | 6530 |  | CN(C)C(=O)N1CC[C@@H](Nc2n[nH]c3nccc(-c4ccc(CNC(=O)c5cnn(C(C)(C)C)c5)c(F)c4)c23)C1 [Example 119, 1-tert-butyl-N-{[4-(3-{[(3R)-1-(dimethylcarbamoyl)pyrrolidin-3-yl]amino}-1H-pyrazolo[3,4-b]pyridin-4-yl)-2-fluorophenyl]methyl}-1H-pyrazole-4-carboxamide]
11 | 28.1 | 2150 |  | 3000 |  | C[C@H]1CC[C@@H](Nc2n[nH]c3nccc(-c4ccc(CNC(=O)c5nc6c(s5)CCCC6)c(F)c4)c23)CN1C(=O)N(C)C [Example 415, N-{[4-(3-{[(3R,6S)-1-(dimethylcarbamoyl)-6-methylpiperidin-3-yl]amino}-1H-pyrazolo[3,4-b]pyridin-4-yl)-2-fluorophenyl]methyl}-4,5,6,7-tetrahydro-1,3-benzothiazole-2-carboxamide]
12 | 2.65 | 855 | 323 | 1770 | < 10 | C[C@H]1CC[C@@H](Nc2n[nH]c3nccc(-c4ccc(CNC(=O)c5noc(C(C)(C)C)n5)c(F)c4)c23)CN1C(=O)CC#N [Example 140, 5-tert-butyl-N-{[4-(3-{[(3R,6S)-1-(2-cyanoacetyl)-6-methylpiperidin-3-yl]amino}-1H-pyrazolo[3,4-b]pyridin-4-yl)-2-fluorophenyl]methyl}-1,2,4-oxadiazole-3-carboxamide]
13 | 1.45 | 118 |  | 90 |  | C=CC(=O)N1CC[C@@H](Nc2n[nH]c3nccc(-c4ccc(CNC(=O)c5cc(C(C)(C)O)on5)c(F)c4)c23)C1 [Example 294, N-{[2-fluoro-4-(3-{[(3R)-1-(prop-2-enoyl)pyrrolidin-3-yl]amino}-1H-pyrazolo[3,4-b]pyridin-4-yl)phenyl]methyl}-5-(2-hydroxypropan-2-yl)-1,2-oxazole-3-carboxamide]
14 | 1.43 | 685 | 479 | 276 | < 10 | C=CC(=O)N1CC[C@@H](Nc2n[nH]c3nccc(-c4ccc(CCNC(=O)c5noc(C(C)(C)C)n5)c(F)c4)c23)C1 [Example 87, 5-tert-butyl-N-{2-[2-fluoro-4-(3-{[(3R)-1-(prop-2-enoyl)pyrrolidin-3-yl]amino}-1H-pyrazolo[3,4-b]pyridin-4-yl)phenyl]ethyl}-1,2,4-oxadiazole-3-carboxamide]
15 | 0.598 | 722 | 1207 | 1180 | < 10 | CC(C)(C)c1noc(C(=O)NCc2ccc(-c3ccnc4[nH]nc(N5CCC(N)CC5)c34)cc2F)n1 [Example 178, N-({4-[3-(4-aminopiperidin-1-yl)-1H-pyrazolo[3,4-b]pyridin-4-yl]-2-fluorophenyl}methyl)-3-tert-butyl-1,2,4-oxadiazole-5-carboxamide]
16 | 0.379 | 291 |  | 1240 |  | C[C@H]1CC[C@@H](Nc2n[nH]c3nccc(-c4ccc(CNC(=O)c5nc(C(C)(C)C)no5)c(F)c4)c23)CN1C(=O)CO [Example 420, 3-tert-butyl-N-{[2-fluoro-4-(3-{[(3R,6S)-1-(hydroxyacetyl)-6-methylpiperidin-3-yl]amino}-1H-pyrazolo[3,4-b]pyridin-4-yl)phenyl]methyl}-1,2,4-oxadiazole-5-carboxamide]
